Where two headings read alike, the source gives them in different places.
Assays:
Assay type in all cases: biochemical
human 17β-HSD1 = biological target: T1, human 17β-HSD1 (Homo sapiens, UniProt P14061); experiment: Inhibition of human 17β-HSD1 (conversion of [3H]-E1 to E2, HPLC radioflow detection); settings: for IC50: read-out: IC50 [nM] h17β-HSD1; for inhibition at 0.01 µM: read-out: % inhibition h17β-HSD1 @ 10 nM; for inhibition at 1 µM: read-out: % inhibition h17β-HSD1 @ 1 μM
T1 construct: For the partial purification of 17β-HSD1, the cytosolic fraction was precipitated with ammonium sulfate; from tissue; host or cells: human placenta, cytosolic fraction, ammonium sulfate precipitate
T1 sequence (P14061 1-328): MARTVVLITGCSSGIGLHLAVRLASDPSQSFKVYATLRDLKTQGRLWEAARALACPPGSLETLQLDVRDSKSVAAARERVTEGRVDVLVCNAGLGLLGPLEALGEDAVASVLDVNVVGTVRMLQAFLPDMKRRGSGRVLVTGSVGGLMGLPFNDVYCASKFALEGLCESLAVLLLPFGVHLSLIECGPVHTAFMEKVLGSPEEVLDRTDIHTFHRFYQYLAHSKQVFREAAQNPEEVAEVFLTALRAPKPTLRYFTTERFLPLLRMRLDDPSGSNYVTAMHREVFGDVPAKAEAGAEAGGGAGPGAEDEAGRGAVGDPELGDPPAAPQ

human 17β-HSD2 = biological target: T2, human 17β-HSD2 (Homo sapiens, UniProt P37059); experiment: Inhibition of human 17β-HSD2 (conversion of [3H]-E2 to E1); settings: for inhibition at 0.01 µM: read-out: % inhibition h17β-HSD2 @ 10 nM; for IC50: read-out: IC50 [nM] h17β-HSD2
T2 construct: 17β-HSD2 was obtained from the microsomal fraction; from tissue; host or cells: human placenta, microsomal fraction
T2 sequence (P37059 1-387): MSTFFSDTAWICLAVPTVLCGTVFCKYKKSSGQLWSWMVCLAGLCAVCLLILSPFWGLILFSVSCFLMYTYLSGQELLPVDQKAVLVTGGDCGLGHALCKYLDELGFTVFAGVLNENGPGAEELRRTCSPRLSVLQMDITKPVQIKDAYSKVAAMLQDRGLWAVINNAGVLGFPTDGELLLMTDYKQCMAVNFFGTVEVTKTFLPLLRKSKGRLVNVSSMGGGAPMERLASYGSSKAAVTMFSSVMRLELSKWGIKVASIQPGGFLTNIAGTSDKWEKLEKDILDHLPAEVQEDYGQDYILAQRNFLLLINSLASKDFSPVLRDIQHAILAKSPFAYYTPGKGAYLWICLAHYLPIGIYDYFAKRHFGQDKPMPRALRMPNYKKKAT
Protocol: Fresh human placenta was homogenized, and cytosolic fraction and microsomes were separated by differential centrifugation at 1,000 g, 10,000 g and 150,000 g.
(§1) The conversion rate was calculated after analysis of the resulting chromatograms according to the following equation: % conversion=[% E1/(% E1+% E2)]×100

mouse 17β-HSD2 = biological target: T3, mouse 17β-HSD2 (Mus musculus, UniProt P51658); experiment: Inhibition of mouse 17β-HSD2 (liver microsomal fraction); settings: for inhibition at 0.05 µM: read-out: % inhibition m17β-HSD2 @ 50 nM; for % inhibition m17β-HSD2 @ 50 nM: 0.05 µM
T3 construct: The pellet fractions containing the microsomal 17β-HSD2 were used for the determination of E1 formation; from tissue; host or cells: mouse liver, microsomal fraction
T3 sequence (P51658 1-381): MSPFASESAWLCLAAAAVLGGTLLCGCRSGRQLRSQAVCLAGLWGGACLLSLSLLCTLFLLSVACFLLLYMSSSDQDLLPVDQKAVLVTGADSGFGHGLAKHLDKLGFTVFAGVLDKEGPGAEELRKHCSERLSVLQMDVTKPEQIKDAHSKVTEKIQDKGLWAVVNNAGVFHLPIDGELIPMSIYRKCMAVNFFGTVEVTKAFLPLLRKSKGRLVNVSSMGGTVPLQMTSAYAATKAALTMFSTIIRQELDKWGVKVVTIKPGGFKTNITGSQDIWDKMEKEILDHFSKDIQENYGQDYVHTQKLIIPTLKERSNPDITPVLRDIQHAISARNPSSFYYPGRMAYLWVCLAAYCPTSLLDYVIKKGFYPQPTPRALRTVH
Protocol: Microsomal 17β-HSD2 fractions were obtained from mouse or rat liver. Fresh liver tissues were processed as described for the human placental 17β-HSD2 preparation. The pellet fractions containing the microsomal 17β-HSD2 were used for the determination of E1 formation.
as §1

[1] = human placental cytosolic enzyme, E1 500 nM, NADH, Tables 1, 4-11

Structure (SMILES) | inhibition at 0.01 µM (human 17β-HSD1) [%] | inhibition at 0.01 µM (human 17β-HSD2) [%] | inhibition at 0.05 µM (mouse 17β-HSD2) [%] | also measured
COc1c(C)cc(-c2ccc(C(=O)c3c(F)ccc(O)c3F)s2)cc1Cl [Compound 26, [5-(3-Chloro-4-methoxy-5-methyl-phenyl)-thiophen-2-yl]-(2,6-difluoro-3-hydroxy-phenyl)-methanone] | – | – | – | IC50 (human 17β-HSD1; [1]): 0.4 nM
O=C(c1ccc(-c2cccc(O)c2)s1)c1cc(F)c(F)c(O)c1F [Compound 69, (5-(3-Hydroxyphenyl)thiophen-2-yl)(2,4,5-trifluoro-3-hydroxyphenyl)methanone] | 72 | 95 | 32 | –
CC(=O)Nc1ccc(-c2ccc(C(=O)c3cc(F)c(F)c(O)c3F)s2)cc1 [Compound 64, N-(4-(5-(2,4,5-trifluoro-3-hydroxybenzoyl)thiophen-2-yl)phenyl)acetamide] | 0 | 62 | 28 | –
Nc1cc(-c2ccc(C(=O)c3cc(F)c(F)c(O)c3F)s2)ccc1O [Compound 59, (5-(3-Amino-4-hydroxyphenyl)thiophen-2-yl)(2,4,5-trifluoro-3-hydroxyphenyl)methanone] | 48 | 68 | 27 | –
COc1ccccc1-c1ccc(C(=O)c2cc(F)c(F)c(O)c2F)s1 [Compound 53, (5-(2-Methoxyphenyl)thiophen-2-yl)(2,4,5-trifluoro-3-hydroxyphenyl)methanone] | 81 | 96 | 34 | –
O=C(c1ccc(-c2ccc3[nH]cnc3c2)s1)c1cc(F)c(F)c(O)c1F [Compound 67, (5-(1H-Benzo[d]imidazol-5-yl)thiophen-2-yl)(2,4,5-trifluoro-3-hydroxyphenyl)methanone] | 30 | 86 | – | –
CC(=O)Nc1cccc(-c2ccc(C(=O)c3cc(F)c(F)c(O)c3F)s2)c1 [Compound 54, N-(3-(5-(2,4,5-Trifluoro-3-hydroxybenzoyl)thiophen-2-yl)phenyl)acetamide] | 31 | 89 | 30 | –
Cc1cc(-c2ccc(C(=O)c3cc(F)cc(O)c3C)s2)cc(C)c1O [Compound 71, (5-(4-Hydroxy-3,5-dimethylphenyl)thiophen-2-yl)(5-fluoro-3-hydroxy-2-methylphenyl)methanone] | – | – | 79 | IC50 (human 17β-HSD1; [1]): 12.6 nM; IC50 (human 17β-HSD2): 50 nM; % inhibition m17β-HSD2 @ 50 nM (mouse 17β-HSD2): 79% @ 50 nM
CC(C)Oc1ccc(-c2ccc(C(=O)c3c(F)ccc(O)c3F)s2)cc1C#N [Compound 18, 5-[5-(2,6-Difluoro-3-hydroxy-benzoyl)-thiophen-2-yl]-2-isopropoxy-benzonitrile] | – | – | – | IC50 (human 17β-HSD1): 8 nM; IC50 (human 17β-HSD2): 19 nM
Cc1cc(-c2ccc(C(=O)c3cc(F)c(F)c(O)c3C)s2)cc(C)c1O [Compound 72, (4,5-Difluoro-3-hydroxy-2-methylphenyl)(5-(4-hydroxy-3,5-dimethylphenyl)thiophen-2-yl)methanone] | – | – | 22 | IC50 (human 17β-HSD1; [1]): 44 nM; IC50 (human 17β-HSD2): 159 nM; % inhibition m17β-HSD2 @ 50 nM (mouse 17β-HSD2): 22% @ 50 nM
COc1c(Cl)cc(-c2ccc(C(=O)c3c(Cl)ccc(O)c3F)s2)cc1Cl [Compound 77, (6-Chloro-2-fluoro-3-hydroxyphenyl)(5-(3,5-dichloro-4-methoxyphenyl)thiophen-2-yl)methanone] | 100 | 45 | – | –
O=C(c1cccc(O)c1)c1ccc(-c2ccc(F)cc2F)s1 [A, reference compound] | – | – | – | inhibition at 1 µM (human 17β-HSD1): 32%
O=C(c1ccc(-c2cccnc2)s1)c1cc(F)c(F)c(O)c1F [Compound 65, (5-(Pyridin-3-yl)thiophen-2-yl)(2,4,5-trifluoro-3-hydroxyphenyl)methanone] | 15 | 62 | – | –
Nc1cccc(-c2ccc(C(=O)c3cccc(O)c3)s2)c1 [F, reference compound] | – | – | – | inhibition at 1 µM (human 17β-HSD1): 77%; inhibition at 1 µM (human 17β-HSD2; read-out: IC50 [nM] or % inhibition h17β-HSD1 (second column so headed, Table 6): % @ 1 μM): 68%
COc1c(Cl)cc(-c2ccc(C(=O)c3c(F)ccc(O)c3Cl)s2)cc1Cl [Compound 78, (2-Chloro-6-fluoro-3-hydroxyphenyl)(5-(3,5-dichloro-4-methoxyphenyl)thiophen-2-yl)methanone] | 41 | 54 | 76 | –
O=C(c1ccc(-c2ccncc2)s1)c1c(F)ccc(O)c1F [Compound 8, (2,6-Difluoro-3-hydroxy-phenyl)-(5-pyridin-4-yl-thiophen-2-yl)-methanone] | – | – | – | inhibition at 1 µM (human 17β-HSD1): 27%; inhibition at 1 µM (human 17β-HSD2; read-out: % inhibition h17β-HSD2 @ 1 μM): 49%
Nc1ccccc1-c1ccc(C(=O)c2cc(F)c(F)c(O)c2F)s1 [Compound 55, (5-(2-Aminophenyl)thiophen-2-yl)(2,4,5-trifluoro-3-hydroxyphenyl)methanone] | 12 | 68 | 23 | –
COc1ccc(-c2ccc(C(=O)c3cc(F)c(F)c(O)c3F)s2)cc1N [Compound 60, (5-(3-Amino-4-methoxyphenyl)thiophen-2-yl)(2,4,5-trifluoro-3-hydroxyphenyl)methanone] | 13 | 51 | 23 | –
O=C(c1ccc(-c2ccc3[nH]ccc3c2)s1)c1cc(F)c(F)c(O)c1F [Compound 61, (5-(1H-Indol-5-yl)thiophen-2-yl)(2,4,5-trifluoro-3-hydroxyphenyl)methanone] | 48 | 68 | 60 | –
Cc1ccc(-c2ccc(C(=O)c3cc(F)c(F)c(O)c3F)s2)cc1N [Compound 57, (5-(3-Amino-4-methylphenyl)thiophen-2-yl)(2,4,5-trifluoro-3-hydroxyphenyl)methanone] | 14 | 60 | – | –
COc1ccc(-c2ccc(C(=O)c3cc(F)c(F)c(O)c3F)s2)cc1 [Compound 51, (5-(4-Methoxyphenyl)thiophen-2-yl)(2,4,5-trifluoro-3-hydroxyphenyl)methanone] | 47 | 87 | – | –
Cc1cc(-c2ccc(C(=O)c3c(F)ccc(O)c3F)s2)cc(Cl)c1O [Compound 27, [5-(3-Chloro-4-hydroxy-5-methyl-phenyl)-thiophen-2-yl]-(2,6-difluoro-3-hydroxy-phenyl)-methanone] | – | – | – | IC50 (human 17β-HSD1): 0.2 nM
O=C(c1ccc(-c2ccc3cccnc3c2)s1)c1cc(F)c(F)c(O)c1F [Compound 66, (5-(Quinolin-7-yl)thiophen-2-yl)(2,4,5-trifluoro-3-hydroxyphenyl)methanone] | 22 | 83 | – | –
O=C(c1ccc(-c2ccccc2O)s1)c1cc(F)c(F)c(O)c1F [Compound 70, (5-(2-Hydroxyphenyl)thiophen-2-yl)(2,4,5-trifluoro-3-hydroxyphenyl)methanone] | 19 | 100 | – | –
NS(=O)(=O)Oc1ccc(-c2ccc(C(=O)c3cc(F)c(F)c(O)c3F)s2)cc1 [Compound 74, 4-(5-(2,4,5-Trifluoro-3-hydroxybenzoyl)thiophen-2-yl)phenyl sulfamate] | 20 | 72 | – | –
Cc1ccc(C(=O)c2cc(F)c(F)c(O)c2F)s1 [Compound 73, (5-Methylthiophen-2-yl)(2,4,5-trifluoro-3-hydroxyphenyl)methanone] | – | – | – | inhibition at 0.1 µM (human 17β-HSD1; read-out: % inhibition h17β-HSD1 @ 100 nM, compound 100 nM): 9.1%
O=C(c1ccc(-c2ccccc2)s1)c1cc(F)c(F)c(O)c1F [Compound 56, (5-Phenylthiophen-2-yl)(2,4,5-trifluoro-3-hydroxyphenyl)methanone] | 71 | 93 | – | –
